Assays:
Test in all cases: In vitro antibacterial activity (MIC), agar dilution
ESCHERICHIA COLI DC-2 = type: cell-based; conditions: E. coli DC-2; BHI agar, 35-37 °C, 20-24 h
ESCHERICHIA COLI SS = type: cell-based; conditions: E. coli SS; BHI agar, 35-37 °C, 20-24 h
[1] = test system: PSEUDOMONAS AERUGINOSA K799/61; type: cell-based; conditions: P. aeruginosa K799/61; BHI agar, 35-37 °C, 20-24 h
[2] = test system: MYCOBACTERIUM SMEGMATIS ATCC 114; type: cell-based; conditions: M. smegmatis ATCC 114; BHI agar, 35-37 °C, 20-24 h
[3] = test system: STAPHYLOCOCCUS AUREUS CMX 553; type: cell-based; conditions: S. aureus CMX 553; BHI agar, 35-37 °C, 20-24 h
STR[…] 508 = type: cell-based, Streptococcus agalactiae; conditions: S. agalactiae CMX 508; BHI agar, 35-37 °C, 20-24 h
Procedure: (§1) Representative compounds of the present invention were assayed in vitro for antibacterial activity as follows: Twelve petri dishes containing successive aqueous dilutions of the test compound mixed with 10 mL of sterilized Brain Heart Infusion (BHI) agar (Difco 0418-01-5) were prepared. Each plate was inoculated with 1:100 (or 1:10 for slow-growing strains, such as Micrococcus and Streptococcus) dilutions of up to 32 different microorganisms, using a Steers replicator block. The inoculated plates were incubated at 35°-37° C. for 20 to 24 hours. In addition, a control plate, using BHI agar containing no test compound, was prepared and incubated at the beginning and end of each test.
(§2) An additional plate containing a compound having known susceptibility patterns for the organisms being tested and belonging to the same antibiotic class as the test compound was also prepared and incubated as a further control, as well as to provide test-to-test comparability. Erythromycin A was used for this purpose.
(§3) After incubation, each plate was examined. The minimum inhibitory concentration (MIC) was defined as the lowest concentration of drug yielding no growth, a slight haze, or sparsely isolated colonies on the inoculum spot as compared to the growth control.

[4] = test system: ACINETOBACTER CALCOACETICUS CMX 669; type: cell-based; conditions: A. calcoaceticus CMX 669; BHI agar, 35-37 °C, 20-24 h
[5] = test system: PSEUDOMONAS AERUGINOSA DPHD-5263; type: cell-based; conditions: P. aeruginosa DPHD-5263; BHI agar, 35-37 °C, 20-24 h
[6] = test system: STREPTOCOCCUS PYOGENES PIU 2548; type: cell-based; conditions: S. pyogenes PIU 2548; BHI agar, 35-37 °C, 20-24 h
[7] = test system: STAPHYLOCOCCUS AUREUS A5177; type: cell-based; conditions: S. aureus A5177; BHI agar, 35-37 °C, 20-24 h
[8] = test system: PSEUDOMONAS AERUGINOSA BMH10; type: cell-based; conditions: P. aeruginosa BMH10; BHI agar, 35-37 °C, 20-24 h
[9] = test system: STAPHYLOCOCCUS EPIDERMIDIS 3519; type: cell-based; conditions: S. epidermidis 3519; BHI agar, 35-37 °C, 20-24 h
[10] = test system: PSEUDOMONAS AERUGINOSA 5007; type: cell-based; conditions: P. aeruginosa 5007; BHI agar, 35-37 °C, 20-24 h
EN[…] ATCC 8043 = type: cell-based, Enterococcus faecium; conditions: E. faecium ATCC 8043; BHI agar, 35-37 °C, 20-24 h
Procedure: as §1, §2, §3

[11] = test system: STAPHYLOCOCCUS AUREUS CMX 642A; type: cell-based; conditions: S. aureus CMX 642A; BHI agar, 35-37 °C, 20-24 h
ESCHERICHIA COLI KNK 437 = type: cell-based; conditions: E. coli KNK 437; BHI agar, 35-37 °C, 20-24 h
[12] = test system: STAPHYLOCOCCUS AUREUS A-5278; type: cell-based; conditions: S. aureus A-5278; BHI agar, 35-37 °C, 20-24 h
[13] = test system: PSEUDOMONAS AERUGINOSA K799/WT; type: cell-based; conditions: P. aeruginosa K799/WT; BHI agar, 35-37 °C, 20-24 h
[14] = test system: STAPHYLOCOCCUS AUREUS NCTC10649M; type: cell-based; conditions: S. aureus NCTC10649M; BHI agar, 35-37 °C, 20-24 h
[15] = test system: PSEUDOMONAS AERUGINOSA DPHD-2862; type: cell-based; conditions: P. aeruginosa DPHD-2862; BHI agar, 35-37 °C, 20-24 h
ESCHERICHIA COLI JUHL = type: cell-based; conditions: E. coli JUHL; BHI agar, 35-37 °C, 20-24 h
[16] = test system: KLEBSIELLA PNEUMONIAE ATCC 8045; type: cell-based; conditions: K. pneumoniae ATCC 8045; BHI agar, 35-37 °C, 20-24 h
[17] = test system: PROVIDENCIA STUARTII CMX 640; type: cell-based; conditions: P. stuartii CMX 640; BHI agar, 35-37 °C, 20-24 h
M[…] ATCC 9341 = type: cell-based, Micrococcus luteus; conditions: M. luteus ATCC 9341; BHI agar, 35-37 °C, 20-24 h
Procedure: as §1, §2, §3

M[…] ATCC 4698 = type: cell-based, Micrococcus luteus; conditions: M. luteus ATCC 4698; BHI agar, 35-37 °C, 20-24 h
Procedure: as §1, §2, §3

ESCHERICHIA COLI H560 = type: cell-based; conditions: E. coli H560; BHI agar, 35-37 °C, 20-24 h

SMILES	minimum inhibitory concentration (MIC) (ESCHERICHIA COLI DC-2)	minimum inhibitory concentration (MIC) (ESCHERICHIA COLI SS)	minimum inhibitory concentration (MIC) [1]	minimum inhibitory concentration (MIC) [2]	minimum inhibitory concentration (MIC) [3]	minimum inhibitory concentration (MIC) (STR[…] 508)	minimum inhibitory concentration (MIC) [4]	minimum inhibitory concentration (MIC) [5]	minimum inhibitory concentration (MIC) [6]	minimum inhibitory concentration (MIC) [7]	minimum inhibitory concentration (MIC) [8]	minimum inhibitory concentration (MIC) [9]	minimum inhibitory concentration (MIC) [10]	minimum inhibitory concentration (MIC) (EN[…] ATCC 8043)	minimum inhibitory concentration (MIC) [11]	minimum inhibitory concentration (MIC) (ESCHERICHIA COLI KNK 437)	minimum inhibitory concentration (MIC) [12]	minimum inhibitory concentration (MIC) [13]	minimum inhibitory concentration (MIC) [14]	minimum inhibitory concentration (MIC) [15]	further results
CC[C@H]1OC(=O)[C@H](C)C[C@H](C)[C@@H](O[C@@H]2O[C@H](C)C[C@H](N(C)C)[C@H]2O)[C@](C)(OC)C[C@@H](C)C(=O)[C@H](C)[C@H]2N(CCCCc3ccccc3)C(=O)O[C@]12C [Ex. 4]	50	1.56	12.5	1.56	1.56	0.1	100	100	0.2	1.56	> 100	1.56	> 100	0.39	1.56	> 100	50	100	1.56	> 100	minimum inhibitory concentration (MIC) (ESCHERICHIA COLI JUHL): > 100; minimum inhibitory concentration (MIC) [16]: > 100; minimum inhibitory concentration (MIC) [17]: > 100; minimum inhibitory concentration (MIC) (M[…] ATCC 9341): 1.56; minimum inhibitory concentration (MIC) (M[…] ATCC 4698): 1.56; minimum inhibitory concentration (MIC) (ESCHERICHIA COLI H560): 25
CC[C@H]1OC(=O)[C@H](C)C[C@H](C)[C@@H](O[C@@H]2O[C@H](C)C[C@H](N(C)C)[C@H]2O)[C@](C)(OC)C[C@@H](C)C(=NOCOCCOC)[C@H](C)[C@@H](O)[C@]1(C)O [Ex. 8]	100	0.2	1.56	25	0.2	0.02	12.5	100	6.2	1.56	100	0.1	> 100	0.05	0.2	100	> 100	100	0.2	100	minimum inhibitory concentration (MIC) (ESCHERICHIA COLI JUHL): 50; minimum inhibitory concentration (MIC) [16]: 25; minimum inhibitory concentration (MIC) [17]: > 100; minimum inhibitory concentration (MIC) (M[…] ATCC 9341): 0.02; minimum inhibitory concentration (MIC) (M[…] ATCC 4698): 0.2; minimum inhibitory concentration (MIC) (ESCHERICHIA COLI H560): 25

Reference: patent US5747466A, “3-deoxy-3-descladinose derivatives of erythromycins A and B” (Abbott Laboratories, priority 1996, dated 1998)
